Test results as given in patent publication US20230286970A1, “NOVEL OXADIAZOLE-BASED SELECTIVE HDAC6 INHIBITORS” (ITALFARMACO S.P.A., priority 2020, published 2023).

Columns and labels:
recombinant human HDAC1 = recombinant human HDAC1 (Homo sapiens (Human), UniProt Q13547); assay: Enzymatic screening, HDAC1 inhibition (fluorogenic FdL_G substrate); format: biochemical
In short: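 Recombinant human HDAC1 inhibition was measured fluorometrically using the FLUOR DE LYS-Green (FdL_G) substrate. Compounds at 8 doses (1% DMSO final) in Tris-HCl pH 8 buffer with NaCl, Tween-20 and glycerol were preincubated in triplicate with enzyme and 1 mg/mL BSA, then given substrate. Developer I plus 2 μM TSA was added, and fluorescence read after 25 minutes in the dark.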

Stability in rat plasma = conditions: after 4 hours, 37° C.
[1] = Stability in human plasma; conditions: after 4 hours, 37° C.
Experimental: In order to evaluate the stability to circulating enzymes, test compounds were incubated in human and rat plasma at 37° C. in a thermostated oscillating bath. Each test compound was incubated at μM concentration (50 μM when the samples were analysed by UV/HPLC, 1 or 2 μM when the samples were analysed by LC-MS/MS) for 0, 15, 30 minutes and 1, 2 and 4 hours. The reaction was stopped placing samples on ice bath and adding acidified acetonitrile. After centrifugation (10 minutes at 14000 rpm) an aliquot of the supernatant was diluted with water, filtered with 0.45 μm regenerated cellulose syringe filters and injected in HPLC-UV or in LC-MS/MS. The percentage of the remaining amount at the various incubation times with respect to the initial amount were calculated. The half-life in plasma was also calculated.

[2] = Stability to Phase I metabolism in human S9 liver fraction; conditions: after 90 minutes, 37° C.
Experimental: Test compounds were incubated in rat and human liver S9 fraction at 37° C. up to 90 minutes in order to evaluate their stability to Phase I metabolism by hepatic enzymes. Each test compound was incubated at μM concentration (50 μM when the samples were analysed by UV/HPLC, 1 or 2 μM when the samples were analysed by LC-MS/MS) with S9 fraction (protein content 2 mg/m L) in 100 mM phosphate buffer (pH 7.4), 3.3 mM MgCl2 and 1.3 mM NADPH for 0, 10, 30, 60 and 90 minutes at 37° C. in a thermostated oscillating bath. The reaction was stopped placing samples on ice bath and adding acidified acetonitrile. After centrifugation (10 minutes at 14000 rpm) an aliquot of the supernatant was diluted with water, filtered with 0.45 μm regenerated cellulose syringe filters and injected in HPLC-UV or in LC-MS/MS. The percentage of the remaining amount at the various incubation times with respect to the initial amount were calculated.

recombinant human HDAC6 = recombinant human HDAC6 (Homo sapiens (Human), UniProt Q9UBN7); assay: Enzymatic screening, HDAC6 inhibition (fluorogenic FdL_G substrate); format: biochemical
recombinant human HDAC6, sequence (Q9UBN7 whole entry): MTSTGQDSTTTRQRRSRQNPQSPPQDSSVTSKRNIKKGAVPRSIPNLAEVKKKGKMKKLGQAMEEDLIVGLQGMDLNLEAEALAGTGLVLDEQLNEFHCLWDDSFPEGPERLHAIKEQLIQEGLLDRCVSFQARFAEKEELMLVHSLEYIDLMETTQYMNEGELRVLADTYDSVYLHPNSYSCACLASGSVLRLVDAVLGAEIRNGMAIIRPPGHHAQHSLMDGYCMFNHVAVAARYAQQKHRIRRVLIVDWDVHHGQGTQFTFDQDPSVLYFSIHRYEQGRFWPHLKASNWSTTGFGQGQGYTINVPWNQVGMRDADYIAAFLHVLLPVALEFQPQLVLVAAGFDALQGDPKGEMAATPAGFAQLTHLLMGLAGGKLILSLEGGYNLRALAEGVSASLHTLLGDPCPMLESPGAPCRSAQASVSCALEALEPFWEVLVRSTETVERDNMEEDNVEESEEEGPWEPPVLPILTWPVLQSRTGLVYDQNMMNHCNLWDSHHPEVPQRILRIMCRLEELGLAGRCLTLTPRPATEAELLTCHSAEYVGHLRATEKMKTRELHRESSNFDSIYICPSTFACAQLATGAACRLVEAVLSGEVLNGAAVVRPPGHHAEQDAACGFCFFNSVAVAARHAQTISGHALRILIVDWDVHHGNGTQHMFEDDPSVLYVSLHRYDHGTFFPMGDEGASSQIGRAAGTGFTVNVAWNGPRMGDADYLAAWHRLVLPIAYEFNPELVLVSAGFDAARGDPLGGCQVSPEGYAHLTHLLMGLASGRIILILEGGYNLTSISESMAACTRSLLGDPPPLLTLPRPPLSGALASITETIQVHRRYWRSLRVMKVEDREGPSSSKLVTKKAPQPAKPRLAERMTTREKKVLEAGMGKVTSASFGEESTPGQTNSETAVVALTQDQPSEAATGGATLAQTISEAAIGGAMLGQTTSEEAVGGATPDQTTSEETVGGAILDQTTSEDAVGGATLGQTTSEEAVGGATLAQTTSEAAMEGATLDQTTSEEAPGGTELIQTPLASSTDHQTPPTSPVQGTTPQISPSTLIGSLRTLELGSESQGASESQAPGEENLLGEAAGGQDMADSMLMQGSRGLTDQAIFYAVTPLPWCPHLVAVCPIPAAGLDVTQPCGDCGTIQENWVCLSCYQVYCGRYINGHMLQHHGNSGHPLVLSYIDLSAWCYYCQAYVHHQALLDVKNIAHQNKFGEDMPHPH
In short: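 Enzyme was preincubated with compound (8 doses, triplicate, 1% DMSO) in 25 mM Tris-HCl pH 8, 130 mM NaCl, 0.05% Tween-20, 10% glycerol, with BSA. A FLUOR DE LYS-Green substrate was then added, and fluorescence was read after developer plus 2 μM TSA.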

[3] = Stability to Phase I metabolism in rat S9 liver fraction; conditions: after 90 minutes, 37° C.

recombinant human HDAC1, sequence (Q13547 whole entry): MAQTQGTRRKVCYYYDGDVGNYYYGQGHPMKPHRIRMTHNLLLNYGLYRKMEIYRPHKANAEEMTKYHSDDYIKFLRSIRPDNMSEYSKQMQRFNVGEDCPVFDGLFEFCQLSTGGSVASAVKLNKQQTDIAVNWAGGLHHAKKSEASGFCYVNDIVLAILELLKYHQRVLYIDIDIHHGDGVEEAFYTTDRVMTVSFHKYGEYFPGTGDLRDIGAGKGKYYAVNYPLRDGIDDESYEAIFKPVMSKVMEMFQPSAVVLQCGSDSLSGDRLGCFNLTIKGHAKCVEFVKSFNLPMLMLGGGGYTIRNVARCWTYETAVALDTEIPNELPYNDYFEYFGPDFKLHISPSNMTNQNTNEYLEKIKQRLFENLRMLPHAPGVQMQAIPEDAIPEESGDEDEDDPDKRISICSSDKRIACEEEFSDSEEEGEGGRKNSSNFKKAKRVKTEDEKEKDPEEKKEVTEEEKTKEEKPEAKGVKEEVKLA

| Structure (SMILES) | IC50 (recombinant human HDAC1) [nM] | residual percentage in RAT PLASMA (Stability in rat plasma) [%] | residual percentage in HUMAN PLASMA [1] [%] | residual percentage in HUMAN S9 FRACTION [2] [%] | IC50 (recombinant human HDAC6) [nM] | residual percentage in RAT S9 FRACTION [3] [%] |
| --- | --- | --- | --- | --- | --- | --- |
| CC[C@H](c1ccc(-c2nnc(C(F)F)o2)cc1)n1cc(-c2ccc(N)nc2)nn1 (stereo in doubt) [compound 194, 5-(1-(1-(4-(5-(difluoromethyl)-1,3,4-oxadiazol-2-yl)phenyl)propyl)-1H-1,2,3-triazol-4-yl)pyridin-2-amine] | > 200000 | 88 | 90 | 95 | 104 | 77 |
| Nc1nc2ccc(-c3cn(Cc4ccc(-c5nnc(C(F)F)o5)cn4)nn3)cc2[nH]1 [Compd. 30, 6-(1-((5-(5-(difluoromethyl)-1,3,4-oxadiazol-2-yl)pyridin-2-yl)methyl)-1H-1,2,3-triazol-4-yl)-1H-benzo[d]imidazol-2-amine] | > 200000 | 68 | 87 | 80 | 10 | 96 |
| O=C(Nc1ccc(-c2nnc(Cc3ccc(-c4nnc(C(F)F)o4)cn3)s2)cn1)C(F)F [Compd. 102, N-(5-(5-((5-(5-(difluoromethyl)-1,3,4-oxadiazol-2-yl)pyridin-2-yl)methyl)-1,3,4-thiadiazol-2-yl)pyridin-2-yl)-2,2-difluoroacetamide] | > 200000 | 90 | 92 | 82 | 39 | 56 |
| Nc1ccc(-c2nnc(Cc3ccc(-c4nnc(C(F)F)o4)cc3)o2)cn1 [Compd. 218, 5-(5-(4-(5-(difluoromethyl)-1,3,4-oxadiazol-2-yl)benzyl)-1,3,4-oxadiazol-2-yl)pyridin-2-amine] | > 200000 | 69 | 92 | 86 | 156 | 89 |
| O=C1NCc2ccc(-c3nnn(Cc4c(F)cc(-c5nnc(C(F)F)o5)cc4F)n3)cc21 [compound 57, 6-(2-(4-(5-(difluoromethyl)-1,3,4-oxadiazol-2-yl)-2,6-difluorobenzyl)-2H-tetrazol-5-yl)isoindolin-1-one] | – | 68 | 62 | 70 | – | 86 |
| C[C@@H](c1ccc(-c2nnc(C(F)F)o2)cc1)n1cc(-c2ccc(N)nc2)nn1 [compound 255, (S)-5-(1-(1-(4-(5-(difluoromethyl)-1,3,4-oxadiazol-2-yl)phenyl)ethyl)-1H-1,2,3-triazol-4-yl)pyridin-2-amine] | – | 57 | 91 | 98 | – | 76 |
| Fc1cc(-c2nnc(C(F)F)o2)ccc1Cc1nc(-c2ccc(NC3=NCCN3)cc2)no1 [compound 420, N-(4-(5-(4-(5-(difluoromethyl)-1,3,4-oxadiazol-2-yl)-2-fluorobenzyl)-1,2,4-oxadiazol-3-yl)phenyl)-4,5-dihydro-1H-imidazol-2-amine] | > 1e+06 | – | – | – | 12 | – |
| Nc1ncc2cc(-c3nnn(Cc4cc(F)c(-c5nnc(C(F)F)o5)cc4F)n3)ccc2n1 [compound 423, 6-(2-(4-(5-(difluoromethyl)-1,3,4-oxadiazol-2-yl)-2,5-difluorobenzyl)-2H-tetrazol-5-yl)quinazolin-2-amine] | 1e+06 | – | – | – | 99 | – |

Results, then the molecule that gave them:

| IC50 (recombinant human HDAC1) [nM] | residual percentage in RAT PLASMA (Stability in rat plasma) [%] | residual percentage in HUMAN PLASMA [1] [%] | residual percentage in HUMAN S9 FRACTION [2] [%] | IC50 (recombinant human HDAC6) [nM] | residual percentage in RAT S9 FRACTION [3] [%] | Structure (SMILES) |
| --- | --- | --- | --- | --- | --- | --- |
| > 200000 | 74 | 83 | 92 | 22 | 99 | O=C1Nc2ccc(-c3cn(Cc4ccc(-c5nnc(C(F)F)o5)cn4)nn3)cc2[C@@]12CCNC2 (single isomer, unassigned) [compound 273, 5-(1-((5-(5-(difluoromethyl)-1,3,4-oxadiazol-2-yl)pyridin-2-yl)methyl)-1H-1,2,3-triazol-4-yl)spiro[indoline-3,3′-pyrrolidin]-2-one] |
| > 200000 | 92 | 81 | 87 | 104 | 80 | CCC[C@@H](c1ccc(-c2nnc(C(F)F)o2)cc1)n1cc(-c2ccc(N)nc2)nn1 (stereo in doubt) [compound 193, 5-(1-(1-(4-(5-(difluoromethyl)-1,3,4-oxadiazol-2-yl)phenyl)butyl)-1H-1,2,3-triazol-4-yl)pyridin-2-amine] |
| > 200000 | 83 | 87 | 98 | 24 | 97 | CC(c1ccc(-c2nnc(C(F)F)o2)cn1)n1cc(-c2ccc(N)nc2)nn1 (stereo not drawn) [Compd. 59, 5-(1-(1-(5-(5-(difluoromethyl)-1,3,4-oxadiazol-2-yl)pyridin-2-yl)ethyl)-1H-1,2,3-triazol-4-yl)pyridin-2-amine] |
| > 200000 | 69 | 88 | 95 | 27 | 86 | CS(=O)(=O)NCCC(c1ccc(-c2nnc(C(F)F)o2)cc1)c1cn(-c2ccc(N)nc2)nn1 (stereo not drawn) [Compd. 62, N-{3-[1-(6-aminopyridin-3-yl)-1H-1,2,3-triazol-4-yl]-3-{4-[5-(difluoromethyl)-1,3,4-oxadiazol-2-yl]phenyl}propyl}methanesulfonamide] |
| > 200000 | 74 | 92 | 93 | 44 | 71 | CC(c1ccc(-c2nnc(C(F)F)o2)cc1)n1cc(-c2ccc(N)nc2)nn1 (stereo not drawn) [Compd. 117, 5-(1-(1-(4-(5-(difluoromethyl)-1,3,4-oxadiazol-2-yl)phenyl)ethyl)-1H-1,2,3-triazol-4-yl)pyridin-2-amine] |
| > 200000 | 80 | 88 | 91 | 87 | 72 | FC(F)c1nnc(-c2ccc(Cn3cc(-c4ccc5[nH]c(N6CCOCC6)nc5c4)nn3)cc2)o1 [Compd. 174, 4-(5-(1-(4-(5-(difluoromethyl)-1,3,4-oxadiazol-2-yl)benzyl)-1H-1,2,3-triazol-4-yl)-1H-benzo[d]imidazol-2-yl)morpholine] |
| 32900 | 81 | 76 | 70 | 26 | 94 | CCNc1nc2ccc(-c3cn(Cc4ccc(-c5nnc(C(F)F)o5)cc4)nn3)cc2[nH]1 [compd. 60, 6-(1-(4-(5-(difluoromethyl)-1,3,4-oxadiazol-2-yl)benzyl)-1H-1,2,3-triazol-4-yl)-N-ethyl-1H-benzo[d]imidazol-2-amine] |
| > 200000 | – | 62 | 94 | 32 | 78 | O=C(Nc1cccc(-c2cn(Cc3c(F)cc(-c4nnc(C(F)F)o4)cc3F)nn2)c1)N1CCOCC1 [compound 78, N-(3-(1-(4-(5-(difluoromethyl)-1,3,4-oxadiazol-2-yl)-2,6-difluorobenzyl)-1H-1,2,3-triazol-4-yl)phenyl)morpholine-4-carboxamide] |
| – | 78 | 86 | 78 | – | 69 | C[C@H](c1ccc(-c2nnc(C(F)F)o2)cc1)n1cc(-c2ccc(N)nc2)nn1 [compound 106, (R)-5-(1-(1-(4-(5-(difluoromethyl)-1,3,4-oxadiazol-2-yl)phenyl)ethyl)-1H-1,2,3-triazol-4-yl)pyridin-2-amine] |
| > 200000 | – | 92 | 70 | 54 | 66 | COc1ncc(NCc2ccc(-c3cn(Cc4ccc(-c5nnc(C(F)F)o5)cc4)nn3)cc2)cc1C(N)=O [compound 138, 5-((4-(1-(4-(5-(difluoromethyl)-1,3,4-oxadiazol-2-yl)benzyl)-1H-1,2,3-triazol-4-yl)benzyl)amino)-2-methoxynicotinamide] |
| 1e+06 | – | – | – | 249 | – | Nc1nccc2cc(-c3nnn(Cc4ccc(-c5nnc(C(F)F)o5)cc4Cl)n3)ccc12 [compound 422, 6-(2-(2-chloro-4-(5-(difluoromethyl)-1,3,4-oxadiazol-2-yl)benzyl)-2H-tetrazol-5-yl)isoquinolin-1-amine] |
| 1e+06 | – | – | – | 345 | – | FC(F)c1nnc(-c2ccc(Cn3nnc(-c4ccc5cnccc5c4)n3)c(Cl)c2)o1 [compound 426, 2-(3-chloro-4-((5-(isoquinolin-6-yl)-2H-tetrazol-2-yl)methyl)phenyl)-5-(difluoromethyl)-1,3,4-oxadiazole] |
